Results as given in the SangsterLogP compilation.

Columns and labels:
[1] = method code SF, from PMID: 7274411
[2] = method code SF-HPLC, from DOI: 10.1016/0378-5173(90)90181-3; details: pH 7.4
[3] = method code SF, from PMID: 25193232; details: pH 7.4
[4] = method code SF-AS, from DOI: 10.1016/j.bmc.2004.10.037, PMID: 15653345
[5] = method code SF-HPLC, from DOI: 10.1016/0378-5173(89)90028-8
[6] = method code SF, from DOI: 10.1016/0168-3659(92)90078-6; details: pH 7.0
[7] = method code SF-AS, from DOI: 10.1021/jm00040a014, PMID: 8035429; details: pH 7.4
[8] = method code SF-AS, from DOI: 10.1135/cccc19831077; details: pH 3.5
[9] = method code SF-RC, from DOI: 10.1021/jf60186a044, PMID: 4688915
[10] = not given; remark: listed apart in the source
[11] = method code SF, from Yoshimoto, M. (1982). Quantitative structure-activity relationships and structure patterns of drugs. SankyoÌ„ KenkyuÌ„jo nenpoÌ„ (Annual report of Sankyo Research Laboratories), 34, 1-38.
[12] = not given; remark: listed apart in the source
[13] = method code SF-RC, from DOI: 10.1002/ps.2780410303
[14] = method code SF-HPLC, from DOI: 10.1039/a702469j; details: pH 7.0
[15] = method code SF-HPLC, from DOI: 10.1016/0378-5173(90)90303-l; details: pH 7.4
[16] = method code SF, from DOI: 10.1007/bf01610114, PMID: 6839039
[17] = method code SF-HPLC, from DOI: 10.1080/01483919108049396; details: pH 7.0
[18] = method code SF, from Wang, L.; Li, H.; Wang, X.; Zhang, Z. (1993). Determination of aqueous solubilities and partition coefficients of substitutive ethylketone congeners by generator column. Huanjing Huaxue, 12(2)151-154.
[19] = method code SF-HPLC, from DOI: 10.1023/a:1011018730459, PMID: 11451042
[20] = not given; remark: listed apart in the source
[21] = method code SF-AS, from DOI: 10.1016/s0969-8051(99)00063-3, PMID: 10628565; details: pH 7.0
[22] = method code SF-HPLC, from DOI: 10.1023/a:1015902024664, PMID: 2235895; details: pH 7.0
[23] = not given; remark: listed apart in the source
[24] = method code SF, from DOI: 10.1016/0006-2952(79)90295-8, PMID: 36087
[25] = not given; remark: listed apart in the source

Question: With `O=C1CN=C(c2ccccc2)c2cc([N+](=O)[O-])ccc2N1` as the compound, how does the logD ([1]; pH 8.0) read?
Answer: 2.06

Question: Which logD [2] does the source give for `O=C(OCn1ncc2c(=O)[nH]cnc21)c1ccc(CN2CCOCC2)cc1` here?
Answer: 1.13

Question: With `O=C(NOC[C@H](O)CO)c1ncc2cncn2c1Nc1ccc(I)cc1F` as the compound, how does the logD [3] read?
Answer: 1.1

Question: For `CCN1CCN(Cc2ccc(OC)c(OC)c2OC)CC1`, which logP is on record?
Answer: 1.69

Question: With `CC(O)CONC(=O)c1ncc2cncn2c1Nc1ccc(I)cc1F` (stereo not drawn) as the compound, how does the logD [3] read?
Answer: 2.2

Question: Which logP [4] does the source give for `OCCN1CCN(Cc2ccc(O)c3ncccc23)CC1` here?
Answer: 0.54

Question: For `CCC(=O)OCOC(=O)c1cn(CC)c2nc(C)ccc2c1=O`, which logP [5] is on record?
Answer: 1.7

Question: Which logD ([1]; pH 8.0) does the source give for `C/N=C1/CN(O)C(c2ccccc2)=c2cc(Cl)ccc2=N1` here?
Answer: 2.12

Question: Which logD [6] does the source give for `CCCC(C)C(=O)OCC1CCC(n2cnc3c(O)ncnc32)O1` (stereo not drawn) here?
Answer: 1

Question: For `CCOP(=O)(OCC)C(=O)CCCCNc1ccn(C2CSC(CO)O2)c(=O)n1` (stereo not drawn), which logD [7] is on record?
Answer: 1.21

Question: With `O=C(O)Cc1ccc(OCc2ccccc2)c(Cl)c1` as the compound, how does the logD [8] read?
Answer: 3.43

Question: With `COc1ccc(C(c2ccc(SC)cc2)C(Cl)(Cl)Cl)cc1` (stereo not drawn) as the compound, how does the logP [9] read?
Answer: 2.9

Question: For `CC(C)(C)NC[C@H](O)COc1nsnc1N1CCOCC1`, which logP [10] is on record?
Answer: 1.98

Question: Which logP [11] does the source give for `CCC(C)SCC(=O)NC1(OC)C(=O)N2C(C(=O)O)=C(COC(N)=O)CSC21` (stereo not drawn) here?
Answer: -1.38

Question: Which logD [7] does the source give for `CCOP(=O)(CC(=O)OCC1OC(n2ccc(N)nc2=O)CS1)OCC` (stereo not drawn) here?
Answer: 0.48

Question: With `Cc1cc(Cl)c(Cl)cc1Cc1ccc(Cl)cc1Cl` as the compound, how does the logP [12] read?
Answer: 6.43

Question: Which logD ([13]; pH 2.8) does the source give for `CCCCc1cnc(C2=NC(C)(C(C)C)C(=O)N2)c(C(=O)O)c1` (stereo not drawn) here?
Answer: 1.99

Question: With `CCOP(=O)(OCC)C(C)(C)[N+]([O-])=Cc1ccc([N+](=O)[O-])cc1` as the compound, how does the logD [14] read?
Answer: 1.43

Question: For `COC1(NC(=O)CSc2nncs2)C(=O)N2C(C(=O)O)=C(COC(N)=O)CSC21` (stereo not drawn), which logP [11] is on record?
Answer: -1.95

Question: For `CCOP(=O)(OCC)C(C)(C)[N+]([O-])=Cc1ccccn1`, which logD [14] is on record?
Answer: 0.68

Question: For `O=C(O)Cc1ccc(OCCCc2ccccc2)c(Cl)c1`, which logD [8] is on record?
Answer: 3.9

Question: Which logD [2] does the source give for `O=C(OCn1ncc2c(=O)[nH]cnc21)c1cccc(CN2CCOCC2)c1` here?
Answer: 1.12

Question: With `CCN(CC)C(=O)COC(=O)c1cc(S(N)(=O)=O)c(Cl)cc1NCc1ccco1` as the compound, how does the logD [15] read?
Answer: 2.45

Question: With `CCCCCOC(=O)c1ccccc1C(=O)OCCCCC` as the compound, how does the logP [16] read?
Answer: 4.85

Question: For `Cc1cc(Cc2ccc(Cl)c(Cl)c2)c(Cl)cc1Cl`, which logP [12] is on record?
Answer: 6.51

Question: Which logD [14] does the source give for `CCOP(=O)(OCC)C(C)(C)[N+]([O-])=Cc1ccc(Cl)cc1` here?
Answer: 2.44

Question: With `O=C(Nc1ncnc2c1ncn2[C@@H]1O[C@H](CO)[C@@H](O)[C@H]1O)c1ccccc1` as the compound, how does the logD [17] read?
Answer: -0.1

Question: For `CN1CCN(CCCN2c3ccccc3Sc3ccc(C(F)(F)F)cc32)CC1`, which logP is on record?
Answer: 4.71

Question: Which logP [18] does the source give for `O=C(CSc1ccccc1)c1ccc(Cl)cc1` here?
Answer: 2.69

Question: With `O=C(NOCCO)c1ccn2cncc2c1Nc1ccc(I)cc1F` as the compound, how does the logD [3] read?
Answer: 2.05

Question: With `CCCCC(=O)OCC1OC(n2cnc3c(NC4CCCC4)ncnc32)C(O)C1O` (stereo not drawn) as the compound, how does the logP [19] read?
Answer: 2.79

Question: With `Cn1c(=O)nc(-c2ccccc2)c2ccccc21` as the compound, how does the logP [20] read?
Answer: 1.79

Question: For `CCOCCOCCOc1ccc2c(c1)c(-c1ccccc1)nc(=O)n2C`, which logP [20] is on record?
Answer: 1.84

Question: For `O=c1[nH]c(Nc2ccccc2)nc2c1ncn2CCO`, which logD [21] is on record?
Answer: 0.83

Question: For `COCc1cnc(C2=NC(C)(C(C)C)C(=O)N2)c(C(=O)O)c1` (stereo not drawn), which logD ([13]; pH 2.5) is on record?
Answer: 0.47

Question: For `CCCCCC(=O)OC[C@H]1O[C@@H](n2cc(C)c(=O)[nH]c2=O)C[C@@H]1N=[N+]=[N-]`, which logD [22] is on record?
Answer: 2.45

Question: With `CC(C)COC(=O)c1ccccc1C(=O)OCC(C)C` as the compound, how does the logP [16] read?
Answer: 4.11

Question: For `CCOP(=O)(OCC)C(=O)OCC1OC(n2ccc(NC(C)=O)nc2=O)CS1` (stereo not drawn), which logD [7] is on record?
Answer: 0.65

Question: For `CCN(CC)CCCC(C)Nc1c2ccc(Cl)cc2nc2ccc(OC)cc12` (stereo not drawn), which logP is on record?
Answer: 5.09

Question: For `COC1(NC(=O)CSc2nc3c[nH]cnc-3n2)C(=O)N2C(C(=O)O)=C(COC(N)=O)CSC21` (stereo not drawn), which logP [11] is on record?
Answer: -1.72

Question: Which logD [17] does the source give for `O=C(Nc1ccn(C2OC(CO)C(O)C2O)c(=O)n1)c1ccccc1` (stereo not drawn) here?
Answer: 0.3

Question: With `CCn1cc(C(=O)OCOC(=O)C(C)C)c(=O)c2ccc(C)nc21` as the compound, how does the logP [5] read?
Answer: 2.17

Question: For `OC(CNCC(O)COc1ccccc1)COc1ccccc1` (stereo not drawn), which logP [10] is on record?
Answer: 2.52

Question: For `Cc1cc(CC(=O)O)ccc1OCc1ccccc1`, which logD [8] is on record?
Answer: 3.37

Question: Which logP [23] does the source give for `Clc1ccc(C(Cn2ccnc2)OCc2ccsc2Cl)c(Cl)c1` (stereo not drawn) here?
Answer: 4.7

Question: For `CC(=O)NCc1cccc(OCC(O)CNC(C)C)c1` (stereo not drawn), which logP [24] is on record?
Answer: 0.34

Question: For `Cn1c(=O)nc(-c2ccccc2)c2cc(O)ccc21`, which logP [20] is on record?
Answer: 1.72

Question: Which logD [15] does the source give for `CCC(=O)OCOC(=O)c1cc(S(N)(=O)=O)c(Cl)cc1NCc1ccco1` here?
Answer: 2.9

Question: With `O=C(OCn1ncc2c(=O)[nH]cnc21)c1cccc(Cn2ccnc2)c1` as the compound, how does the logD [2] read?
Answer: 0.97

Question: Which logD [6] does the source give for `CC(C)C(=O)OCC1CCC(n2cnc3c(O)ncnc32)O1` (stereo not drawn) here?
Answer: 0.02

Question: Which logP [9] does the source give for `CCOc1ccc(C(c2ccc(C)cc2)C(Cl)(Cl)Cl)cc1` (stereo not drawn) here?
Answer: 3.96

Question: With `CN1C(=O)CN=C(c2ccccc2F)c2cc([N+](=O)[O-])ccc21` as the compound, how does the logD ([1]; pH 4.0) read?
Answer: 2.05

Question: Which logP [23] does the source give for `OC(Cn1ccnc1)(Cn1cncn1)c1ccc(Cl)cc1Cl` (stereo not drawn) here?
Answer: 1.6

Question: For `OC1(c2cccc(Br)c2)c2ccccc2C2=NCCN21` (stereo not drawn), which logP [25] is on record?
Answer: 1.97

Question: For `Cc1ccc(SCC(=O)c2ccccc2)cc1`, which logP [18] is on record?
Answer: 2.46

Question: For `CC(=O)Nc1ccc(OCC(O)CNCC(O)COc2ccccc2)cc1` (stereo not drawn), which logP [10] is on record?
Answer: 1.39

Question: With `CNC(=O)COc1ccc(OCC(O)CNC(C)C)cc1` (stereo not drawn) as the compound, how does the logP [24] read?
Answer: 0.56

Question: Which logD [15] does the source give for `CCOC(=O)c1cc(S(N)(=O)=O)c(Cl)cc1NCc1ccco1` here?
Answer: 2.67

Question: With `Cc1cc(Cl)c(Cc2cc(Cl)ccc2Cl)cc1Cl` as the compound, how does the logP [12] read?
Answer: 6.51

Question: For `COCCn1cnc2c(=O)[nH]c(Nc3ccccc3)nc21`, which logD [21] is on record?
Answer: 1.2

Question: For `CCCCCCCCCC(=O)OC[C@H]1O[C@@H](n2cc(C)c(=O)[nH]c2=O)C[C@@H]1N=[N+]=[N-]`, which logD [22] is on record?
Answer: 4.45

Question: Which logP [19] does the source give for `O=C(OCC1OC(n2cnc3c(NC4CCCC4)ncnc32)C(O)C1O)C1CCCCC1` (stereo not drawn) here?
Answer: 2.95

Question: Which logD [17] does the source give for `O=C(Nc1ncnc2c1ncn2[C@H]1C[C@H](O)[C@@H](CO)O1)c1ccccc1` here?
Answer: 0.22

Question: For `CCOC(=O)C(CS)NCc1ccc(O)c2ncccc12` (stereo not drawn), which logP [4] is on record?
Answer: 0.21

Question: With `O=C(CSc1ccccc1)c1ccccc1` as the compound, how does the logP [18] read?
Answer: 1.88

Question: With `C#CCN(C)Cc1ccc(O)c2ncccc12` as the compound, how does the logP [4] read?
Answer: 1.92

Question: For `CCCC(=O)OC[C@H]1O[C@@H](n2cc(C)c(=O)[nH]c2=O)C[C@@H]1N=[N+]=[N-]`, which logD [22] is on record?
Answer: 1.5

Question: With `OC[C@H]1O[C@@H](n2cnc3c(NC4CCCC4)ncnc32)[C@H](O)[C@@H]1O` as the compound, how does the logP [19] read?
Answer: 1.21

Question: Which logP [16] does the source give for `CC(C)OC(=O)c1ccccc1C(=O)OC(C)C` here?
Answer: 2.83

Question: For `CCCCCCC(O)(Cn1ccnc1)c1ccc(Cl)cc1Cl` (stereo not drawn), which logP [23] is on record?
Answer: 5.2

Question: For `CNC(=O)COc1cccc(OCC(O)CNC(C)C)c1` (stereo not drawn), which logP [24] is on record?
Answer: 0.35

Question: With `OC1(c2cccc(Cl)c2)c2ccccc2C2=NCCN21` (stereo not drawn) as the compound, how does the logP [25] read?
Answer: 1.85

Question: Which logP [9] does the source give for `CSc1ccc(C(c2ccc(SC)cc2)C(Cl)(Cl)Cl)cc1` here?
Answer: 3.85

Question: For `CC(C)(C)C(=O)OCC1CCC(n2cnc3c(O)ncnc32)O1` (stereo not drawn), which logD [6] is on record?
Answer: 0.6

Question: With `O=c1[nH]c(Nc2ccccc2)nc2c1ncn2C1CC(O)C(CO)O1` (stereo not drawn) as the compound, how does the logD [21] read?
Answer: 0.4

Question: For `OC1(c2cccc(I)c2)c2ccccc2C2=NCCN21` (stereo not drawn), which logP [25] is on record?
Answer: 2.3

Question: Which logD ([13]; pH 1.8) does the source give for `CC(C)C1(C)N=C(c2ncc(Br)cc2C(=O)O)NC1=O` (stereo not drawn) here?
Answer: 1.19

Question: For `CCn1cc(C(=O)OCOC(C)=O)c(=O)c2ccc(C)nc21`, which logP [5] is on record?
Answer: 1.21
